Experimental data from publication PMC6009921, “Carbon- versus sulphur-based zinc binding groups for carbonic anhydrase inhibitors?” (Journal of Enzyme Inhibition and Medicinal Chemistry, 2018).
Like-named read-outs stand apart in the source and are kept apart here.

Columns and labels:
Assay in all cases: stopped-flow CO2 hydration
Format in all cases: biochemical
hCA IX = target: T1, hCA IX (Homo sapiens, UniProt Q16790)
T1 construct: gene CA9; recombinant, obtained in-house
From the text: stopped-flow CO2 hydration on hCA IX

hCA IV = target: T2, hCA IV (Homo sapiens, UniProt P22748); conditions: read-out: KI (μM)^a^,^b / hCA IV
T2 construct: gene CA4; recombinant, obtained in-house
T2 sequence (P22748 19-284): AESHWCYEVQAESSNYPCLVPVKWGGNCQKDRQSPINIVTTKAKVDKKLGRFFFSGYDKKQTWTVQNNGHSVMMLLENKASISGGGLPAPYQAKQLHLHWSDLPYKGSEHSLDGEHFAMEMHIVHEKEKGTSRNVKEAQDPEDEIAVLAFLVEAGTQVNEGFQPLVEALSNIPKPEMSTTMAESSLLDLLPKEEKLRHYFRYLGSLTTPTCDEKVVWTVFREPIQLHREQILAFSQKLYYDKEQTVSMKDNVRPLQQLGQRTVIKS
From the text: stopped-flow CO2 hydration on hCA IV

hCA II = target: T3, hCA II (Homo sapiens, UniProt P00918)
T3 construct: gene CA2; recombinant, obtained in-house

hCA III = target: T4, hCA III (Homo sapiens, UniProt P07451); conditions: read-out: KI (μM)^a^,^b / hCA III
T4 construct: gene CA3; recombinant, obtained in-house
T4 sequence (P07451 2-260): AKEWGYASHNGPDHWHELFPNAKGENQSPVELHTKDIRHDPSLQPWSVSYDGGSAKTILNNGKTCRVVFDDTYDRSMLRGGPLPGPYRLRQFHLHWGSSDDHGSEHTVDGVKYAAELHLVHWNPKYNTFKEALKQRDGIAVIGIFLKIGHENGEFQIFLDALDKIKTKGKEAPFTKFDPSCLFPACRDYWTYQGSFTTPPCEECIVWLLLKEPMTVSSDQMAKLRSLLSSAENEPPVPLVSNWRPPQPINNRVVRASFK
From the text: stopped-flow CO2 hydration on hCA III

hCA VII = target: T5, hCA VII (Homo sapiens, UniProt P43166); conditions: read-out: KI (μM)^a^,^b / hCA VII
T5 construct: gene CA7; recombinant, obtained in-house
T5 sequence (P43166 whole entry): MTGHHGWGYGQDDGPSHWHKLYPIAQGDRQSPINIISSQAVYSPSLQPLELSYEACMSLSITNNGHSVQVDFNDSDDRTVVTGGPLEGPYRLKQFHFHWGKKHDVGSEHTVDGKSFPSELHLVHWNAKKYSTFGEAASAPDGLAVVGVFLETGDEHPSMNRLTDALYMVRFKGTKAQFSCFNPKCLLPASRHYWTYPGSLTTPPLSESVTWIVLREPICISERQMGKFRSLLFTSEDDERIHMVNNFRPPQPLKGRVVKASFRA

hCA VB = target: T6, hCA VB (Homo sapiens, UniProt Q9Y2D0); conditions: read-out: KI (μM)^a^,^b / hCA VB
T6 construct: gene CA5B; recombinant, obtained in-house
T6 sequence (Q9Y2D0 34-317): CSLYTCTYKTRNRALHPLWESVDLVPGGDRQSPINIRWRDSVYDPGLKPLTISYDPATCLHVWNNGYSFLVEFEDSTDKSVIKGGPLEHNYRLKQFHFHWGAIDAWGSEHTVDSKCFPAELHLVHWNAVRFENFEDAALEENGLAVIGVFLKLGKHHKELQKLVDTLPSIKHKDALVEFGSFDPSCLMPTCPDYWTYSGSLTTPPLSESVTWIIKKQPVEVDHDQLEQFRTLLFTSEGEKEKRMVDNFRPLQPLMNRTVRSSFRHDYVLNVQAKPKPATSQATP
From the text: stopped-flow CO2 hydration on hCA VB

hCA VI = target: T7, hCA VI (Homo sapiens, UniProt P23280); conditions: read-out: KI (μM)^a^,^b / hCA VI
T7 construct: gene CA6; recombinant, obtained in-house
T7 sequence (P23280 18-308): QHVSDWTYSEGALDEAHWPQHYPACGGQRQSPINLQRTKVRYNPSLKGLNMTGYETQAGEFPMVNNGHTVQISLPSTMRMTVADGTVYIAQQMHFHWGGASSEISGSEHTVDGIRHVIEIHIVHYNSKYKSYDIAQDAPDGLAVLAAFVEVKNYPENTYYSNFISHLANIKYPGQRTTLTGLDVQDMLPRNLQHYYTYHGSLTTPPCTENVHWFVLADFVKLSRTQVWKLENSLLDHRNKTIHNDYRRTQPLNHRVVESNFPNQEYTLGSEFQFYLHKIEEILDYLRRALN
From the text: stopped-flow CO2 hydration on hCA VI

hCA VA = target: T8, hCA VA (Homo sapiens, UniProt P35218); conditions: read-out: KI (μM)^a^,^b / hCA VA
T8 construct: gene CA5A; recombinant, obtained in-house
T8 sequence (P35218 39-305): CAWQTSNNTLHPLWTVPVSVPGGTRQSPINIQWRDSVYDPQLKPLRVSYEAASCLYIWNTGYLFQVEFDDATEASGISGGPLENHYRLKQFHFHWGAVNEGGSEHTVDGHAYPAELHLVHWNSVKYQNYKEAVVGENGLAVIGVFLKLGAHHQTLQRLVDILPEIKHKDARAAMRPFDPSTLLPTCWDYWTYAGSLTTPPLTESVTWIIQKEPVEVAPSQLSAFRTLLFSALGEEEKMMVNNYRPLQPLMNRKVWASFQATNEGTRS
From the text: stopped-flow CO2 hydration on hCA VA

hCA XII = target: T9, hCA XII (Homo sapiens, UniProt O43570)
T9 construct: gene CA12; recombinant, obtained in-house
T9 sequence (O43570 30-289 limits assumed): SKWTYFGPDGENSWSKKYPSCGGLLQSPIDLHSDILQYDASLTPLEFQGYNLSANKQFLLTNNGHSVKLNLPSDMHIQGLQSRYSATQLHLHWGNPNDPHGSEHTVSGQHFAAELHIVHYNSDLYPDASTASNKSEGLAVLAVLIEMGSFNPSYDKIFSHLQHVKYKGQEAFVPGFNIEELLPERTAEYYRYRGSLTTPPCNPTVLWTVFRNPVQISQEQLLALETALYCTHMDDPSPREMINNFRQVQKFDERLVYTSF

hCA XIV = target: T10, hCA XIV (Homo sapiens, UniProt Q9ULX7); conditions: read-out: KI (μM)^a^,^b / hCA XIV
T10 construct: gene CA14; recombinant, obtained in-house
T10 sequence (Q9ULX7 16-290 limits assumed): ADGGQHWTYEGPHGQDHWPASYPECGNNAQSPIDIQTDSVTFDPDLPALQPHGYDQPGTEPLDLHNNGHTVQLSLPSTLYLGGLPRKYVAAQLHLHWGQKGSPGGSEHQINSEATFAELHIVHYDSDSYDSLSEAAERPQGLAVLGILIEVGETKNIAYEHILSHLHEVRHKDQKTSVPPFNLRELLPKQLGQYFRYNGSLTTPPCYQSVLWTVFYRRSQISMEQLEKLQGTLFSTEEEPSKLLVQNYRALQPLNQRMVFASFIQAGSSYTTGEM
From the text: stopped-flow CO2 hydration on hCA XIV

hCA I [1] = target: T11, hCA I (Homo sapiens, UniProt P00915)
T11 construct: gene CA1; recombinant, obtained in-house
T11 sequence (P00915 2-261): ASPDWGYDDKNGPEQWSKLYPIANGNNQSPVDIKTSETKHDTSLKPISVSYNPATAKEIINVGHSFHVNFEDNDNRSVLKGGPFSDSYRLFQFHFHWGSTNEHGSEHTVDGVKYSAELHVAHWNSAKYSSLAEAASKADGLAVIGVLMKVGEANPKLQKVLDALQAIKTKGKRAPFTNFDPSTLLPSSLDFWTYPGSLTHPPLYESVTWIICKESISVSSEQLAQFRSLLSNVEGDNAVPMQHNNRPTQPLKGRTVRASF

mCA XIII = target: T12, mCA XIII (Mus musculus, UniProt Q9D6N1); conditions: read-out: KI (μM)^a^,^b / mCA XIII
T12 construct: gene Ca13; recombinant, obtained in-house
T12 sequence (Q9D6N1 whole entry): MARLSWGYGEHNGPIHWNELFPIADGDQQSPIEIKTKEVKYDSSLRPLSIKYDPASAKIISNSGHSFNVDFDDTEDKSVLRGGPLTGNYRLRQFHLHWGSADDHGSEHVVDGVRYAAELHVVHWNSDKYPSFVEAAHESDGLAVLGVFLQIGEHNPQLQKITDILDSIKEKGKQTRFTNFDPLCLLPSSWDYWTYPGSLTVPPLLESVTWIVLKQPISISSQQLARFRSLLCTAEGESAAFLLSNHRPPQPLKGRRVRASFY
From the text: stopped-flow CO2 hydration on mCA XIII

hCA I [2] = target: T11, hCA I; conditions: CO2 1.7-17 mM, 20 mM Hepes pH 7.5, 20 mM Na2SO4, 15 min preincubation, room temperature; unreliable: table and text (69.8) disagree
From the text: stopped-flow CO2 hydration on hCA I

[3] = read-out: KI (μM)^a^,^b / hCA II
[4] = read-out: KI (μM)^a^,^b / hCA IX^c
[5] = read-out: KI (μM)^a^,^b / hCA XII^c
[6] = read-out: KI (μM)^a^,^b / hCA I
[7] = CO2 1.7-17 mM, 20 mM Hepes pH 7.5, 20 mM Na2SO4, 15 min preincubation, room temperature, read-out: KI (μM)^a^,^b / hCA I

SMILES | Ki (hCA IV) [µM] | Ki (hCA II; [3]) [µM] | Ki (hCA III) [µM] | Ki (hCA IX; [4]) [µM] | Ki (hCA VII) [µM] | Ki (hCA VB) [µM] | Ki (hCA VI) [µM] | Ki (hCA VA) [µM] | Ki (hCA XII; [5]) [µM] | Ki (hCA XIV) [µM] | Ki (hCA I [1]; [6]) [µM] | also measured
NS(=O)(=O)Nc1ccccc1 [2b, sulphamide 2b] |  |  |  |  |  |  |  |  |  |  |  | Ki (hCA IX; read-out: hCA IX): 0.071 µM
NNC(=O)c1ccccc1 [compound 8, hydrazide 8] | 335 | 231 | 40.2 | 48.4 | 76.7 | 75.9 | 63.5 | 59.3 | 45 | 0.99 | 91.2 | 
CONC(=O)c1ccccc1 [compound 10, methylated hydroxamate 10] | 111 | 341 | 37.3 | 57.5 | 72.2 | 57.3 | 89.9 | 89.1 | 28.5 | 10 | 72.5 | 
NC(=O)Oc1ccccc1 [7a, carbamate 7a] |  |  |  |  |  |  |  |  |  |  |  | Ki (hCA II; read-out: hCA II): 110 µM; Ki (hCA IX; read-out: hCA IX): 10.1 µM; Ki (hCA XII; read-out: hCA XII): 2.81 µM; Ki (hCA I [1]; read-out: hCA I): 720 µM
O=C(NO)c1ccccc1 [compound 9, hydroxamic acid 9] | 84.7 |  | 44.8 |  | 70.7 | 53.6 | 78.1 | 67.4 |  | 0.94 |  | Ki (hCA II; CO2 1.7-17 mM, 20 mM Hepes pH 7.5, 20 mM Na2SO4, 15 min preincubation, room temperature, read-out: KI (μM)^a^,^b / hCA II): 179 µM; Ki (hCA IX; CO2 1.7-17 mM, 20 mM Hepes pH 7.5, 20 mM Na2SO4, 15 min preincubation, room temperature, read-out: KI (μM)^a^,^b / hCA IX^c): 45.9 µM; Ki (hCA I [1]; [7]): 83.1 µM
O=C(O)c1ccccc1 [compound 6, benzoic acid] | 434 | 30.1 | 35.7 | 66.5 | 92.2 | 9.6 | 91.6 | 7.12 | 20.4 | 0.98 |  | Ki (hCA I [1]; [7]): 730 µM

More lines, main results first:

Ki (hCA IV) [µM] | Ki (hCA II; [3]) [µM] | Ki (hCA III) [µM] | Ki (hCA IX; [4]) [µM] | Ki (hCA VII) [µM] | Ki (hCA VB) [µM] | Ki (hCA VI) [µM] | Ki (hCA VA) [µM] | Ki (hCA XII; [5]) [µM] | Ki (hCA XIV) [µM] | Ki (hCA I [1]; [6]) [µM] | SMILES | also measured
78.4 | 5.31 | 6.28 | 51.7 | 8.56 | 95.2 | 74.4 | 7.75 | 2.42 | 3.81 |  | NNS(=O)(=O)c1ccccc1 [compound 3, N-amino sulphonamide 3] | Ki (mCA XIII): 5.96 µM; KI (μM)^a^,^b / hCA I (hCA I [2]): 9.8 µM
9.1 | 9.3 | 6.63 | 9.55 | 7.93 | 79.8 | 8.8 | 80.9 | 6.45 | 8.79 | 8.65 | O=S(=O)(O)c1ccccc1 [compound 1, benzenesulphonic acid] | Ki (mCA XIII): 8.72 µM
381 | 93.2 | 35.7 | 3.67 | 76.8 | 83.1 | 82.6 | 46.8 | 11.2 | 27 | 324 | NC(=O)c1ccccc1 [compound 7, carboxamide 7] | 
7.96 |  | 2.26 |  |  | 8.82 | 0.097 | 1.68 |  | 0.092 |  | NS(=O)(=O)c1ccccc1 [compound 2, benzenesulphonamide] | Ki (mCA XIII): 0.1 µM; Ki (hCA IX; read-out: KI (μM)^a^,^b / hCA VI): 0.097 µM
39.5 | 8.96 | 5.72 | 64.3 | 9.56 | 10.7 | 27 | 6.7 | 8.32 | 1.57 | > 1000 | CONS(=O)(=O)c1ccccc1 [compound 5, N-methoxysulphonamide 5] | 
24.6 | 5.47 | 4.42 | 60.3 | 8.73 | 67.9 | 86.2 | 5.28 | 1.53 | 1.66 | 2.73 | O=S(=O)(NO)c1ccccc1 [compound 4, N-hydroxysulphonamide 4] | 
